Source: publication PMC8688338 (Molecular microbiology, 2021)
Several values for one entry are separate records, joined by “and”; a condition that tells them apart may be missing. Identical values can stand only once. Like-named read-outs stand apart in the source and are kept apart here.

Legend:
[1] = test system: T. vaginalis nucleoside transporters, Adenosine (LA); assay: Low affinity adenosine transport; format: cell-based, Trichomonas vaginalis; settings: for inhibition of transport: highest tested concentration: guanosine 250 µM, adenine 1 mM, hypoxanthine 1 mM, uracil 10 mM; for Ki: read-out: Ki,app; for Ki / EC50: inhibition of 20 µM [3H]-adenosine transport; for EC50: Fig. 4; for Km: read-out: Km,app
[2] = test system: low affinity pyrimidine nucleobase transporter of T. vaginalis; assay: [3H]-uracil transport in T. vaginalis trophozoites; format: cell-based, Trichomonas vaginalis; settings: for inhibition of uracil transport: uridine, thymidine up to 10 mM, adenosine, inosine up to 1 mM
uracil transporter = format: cell-based, Trypanosoma brucei; settings: 0.25 µM [3H]-uridine, control (empty vector) cells, 250 µM uracil
[3] = test system: T. vaginalis nucleoside transporters, Thymidine (HA); assay: Higher affinity [3H]-thymidine transport; format: cell-based, Trichomonas vaginalis; settings: for inhibition of transport: nucleobase at 1 mM
[4] = biological target: T. vaginalis nucleoside transporters, Adenosine (HA); assay: High affinity [3H]-adenosine transport in T. vaginalis trophozoites; format: cell-based, Trichomonas vaginalis; settings: for Ki: read-out: Ki,app, inhibition of […] [3H]-adenosine transport, monophasic
[5] = test system: T. vaginalis trophozoites; settings: 1 µM [3H]-hypoxanthine over 300 s, with or without 1 mM unlabelled hypoxanthine
[6] = test system: T. vaginalis trophozoites; assay: [3H]-guanine transport in T. vaginalis trophozoites; format: cell-based, Trichomonas vaginalis; settings: 2 µM [3H]-guanine
[7] = biological target: T. vaginalis nucleoside transporters, Cytidine (HA); assay: High affinity [3H]-cytidine transport in T. vaginalis trophozoites; format: cell-based, Trichomonas vaginalis; settings: read-out: Ki,app, inhibition of […] [3H]-cytidine transport, 30 s, average and SEM
TvagENT3 = TvagENT3 (Trichomonas vaginalis, UniProt A2E5Q3); assay: [3H]-cytidine uptake by T. brucei TbAT1-KO cells expressing TvagENT3
[8] = biological target: T. vaginalis nucleoside transporters, Guanosine (HA); assay: [3H]-guanosine transport in T. vaginalis trophozoites; format: cell-based, Trichomonas vaginalis; settings: read-out: Ki,app; inhibition of [3H]-guanosine transport; monophasic sigmoid curve; average and SEM
[9] = biological target: T. vaginalis nucleoside transporters, Inosine (LA); assay: Low affinity [3H]-inosine transport in T. vaginalis trophozoites; format: cell-based, Trichomonas vaginalis; settings: read-out: Ki,app, inhibition of 1 µM [3H]-inosine uptake, average and SEM
[10] = test system: T. vaginalis nucleoside transporters; settings: ref Harris et al., 1988; cited from earlier work
TvagENT6 = TvagENT6 (Trichomonas vaginalis, UniProt A2EMT5); assay: cell-based
[11] = biological target: T. vaginalis nucleoside transporters, Cytidine (LA); assay: Low affinity cytidine transport in T. vaginalis trophozoites; format: cell-based, Trichomonas vaginalis; settings: read-out: Ki,app; inhibition of Cytidine (LA) transport; average and SEM
[12] = test system: T. vaginalis nucleoside transporters, Thymidine (LA); assay: Low affinity thymidine transport; format: cell-based, Trichomonas vaginalis; settings: for EC50: Fig. 3E
[13] = biological target: T. vaginalis nucleoside transporters, Uridine (HA); assay: [3H]-uridine transport in T. vaginalis trophozoites; format: cell-based, Trichomonas vaginalis; settings: read-out: Ki,app; inhibition of 0.5 µM [3H]-uridine transport, 30 s; average and SEM
[14] = test system: T. vaginalis adenine transporter; assay: [3H]-adenine transport in T. vaginalis trophozoites; format: cell-based, Trichomonas vaginalis
P1 transporter = settings: thymidine uptake by P1 transporter; ref De Koning and Jarvis, 1999; cited from earlier work
[15] = test system: O=c1ccn([C@@H]2O[C@H](CO)[C@@H](O)[C@H]2O)c(=O)[nH]1; assay: cells, lysate or membranes; settings: other: single experiment, Fig. 11D inset
[16] = test system: vaginal trichomonad infection; settings: murine model of vaginal trichomonad infection; ref Natto et al., 2021; cited from earlier work
[17] = single experiment, Fig. 5D inset
[18] = Lineweaver-Burk double reciprocal plot, single experiment, Fig. 3F
[19] = saturation curve, single experiment, Fig. 3E inset
[20] = single experiment, Fig. 3C inset

With `O=c1cc[nH]c(=O)[nH]1` [uracil] the inhibition of transport ([1]; 20 µM [3H]-adenosine) was at most 50%, the Ki ([1]; average and SEM) was over 10000 µM and the rate of uptake ([2]; 0.5 µM [3H]-uracil) was 0.0056 ± 0.0003 pmol(10^7 cells)^−1s^−1. The “rate of uptake in the presence of unlabelled permeant” value ([2]; 0.5 µM [3H]-uracil + 1 mM unlabelled uracil) was 0.0011 ± 0.0002 pmol(10^7 cells)^−1s^−1, the EC50 ([2]; 0.5 µM [3H]-uracil over 20 s, single experiment, Fig. 5D) was 247 µM and the Vmax ([2]; 0.5 µM [3H]-uracil, 20 s, average) was 1.58 ± 0.08 pmol(10^7 cells)^−1s^−1. For the same molecule, the Km ([2]; read-out: Km,app, 0.5 µM [3H]-uracil, 20 s, average) was 257 ± 58 µM, the Km [2, 17] was 298 µM and the Vmax [2, 17] was 1.43 pmol(10^7 cells)^−1s^−1. For the same molecule, the “reduction of background uridine uptake” value (uracil transporter) was ~ 85% and 84.7% and the inhibition of transport ([3]; 125 nM [3H]-thymidine) was at most 50%.
`O=c1[nH]cnc2nc[nH]c12` [hypoxanthine] showed a Ki ([4]; 30 s, average and SEM) of 185 ± 37 µM, an inhibition of transport ([1]; 20 µM [3H]-adenosine) of at most 50% and a Ki ([1]; average and SEM) of over 1000 µM. The specific uptake [5] was “no specific uptake” and the inhibition of transport ([3]; 125 nM [3H]-thymidine) was at most 50%.
In the case of `Nc1nc2nc[nH]c2c(=O)[nH]1` [guanine], the rate of uptake [6] is reported as 0.017 ± 0.002 pmol(10^7 cells)^−1s^−1 and 0.0167 ± 0.0020 pmol(10^7 cells)^−1s^−1.
In the case of `Nc1ncnc2c1ncn2[C@@H]1O[C@H](CO)[C@@H](O)[C@H]1O` [adenosine], the “rate of transport in the presence of unlabelled permeant” value ([4]; 0.25 µM [3H]-adenosine + 1 mM unlabelled adenosine) is reported as 0.0091 ± 0.0085 pmol(10^7 cells)^−1s^−1, the inhibition of uptake ([4]; 0.25 µM [3H]-adenosine by 1 mM unlabelled adenosine) is reported as over 99% and the rate of transport ([4]; 0.25 µM [3H]-adenosine, over 60 s, uninhibited) is reported as 1.15 pmol(10^7 cells)^−1s^−1 and 1.15 ± 0.06 pmol(10^7 cells)^−1s^−1. For the same molecule, the Vmax ([4]; Adenosine (HA), average and SEM) was 9.5 ± 2.4 pmol(10^7 cells)^−1s^−1, the Km ([4]; read-out: Km,app, Adenosine (HA), […] [3H]-adenosine, 30 s, average and SEM) was 6.2 ± 0.6 µM and the Ki [7] was 2.18 ± 0.29 µM. The Ki ([7]; listed as Adenosine) was 2.2 ± 0.3 µM, the Vmax ([1]; Adenosine (LA), average and SEM) was 31 ± 2 pmol(10^7 cells)^−1s^−1 and the EC50 ([1]; single experiment) was 60.5 µM. The Km ([1]; Adenosine (LA), 20 µM [3H]-adenosine, average and SEM) was 59.4 ± 6.1 µM, the Km ([1]; Adenosine (LA), 20 µM [3H]-adenosine, average and SEM, listed as Adenosine) was 59 ± 6 µM and the Km ([1]; single experiment, Fig. 4A inset) was 63.5 µM. For the same molecule, the “inhibition of uracil transport” value [2] was “unable to inhibit”, the Hill slope (TvagENT3) was −1.04 ± 0.07 and the “inhibition of cytidine uptake” value (TvagENT3; 0.5 µM [3H]-cytidine, inhibitor at 400 µM) was “completely”. For the same molecule, the Hill slope (TvagENT3; single experiment, Fig. 10D-F) was −1.1, the Ki [8] was 4.1 ± 0.9 µM and the Ki [9] was 6.36 ± 1.69 µM. The Ki ([9]; listed as Adenosine) was 6.4 ± 1.7 µM, the Km [10] was 3.9 µM and the Ki (TvagENT6) was 47.2 ± 6.4 µM. The Ki [11] was 357 ± 32 µM, the EC50 ([12]; 1 µM [3H]-thymidine, single experiment) was 89.8 µM and the Ki [13] was 8.16 ± 0.59 µM. It also gave an EC50 [14] of 85.9 µM and a Ki ([14]; read-out: Ki,app, inhibition of 50 nM [3H]-adenine transport) of 155 ± 48 µM.
With `Cc1cn([C@H]2C[C@H](O)[C@@H](CO)O2)c(=O)[nH]c1=O` [thymidine] the Ki ([4]; 30 s, average and SEM) was 274 ± 45 µM, the EC50 ([1]; single experiment) was 817 µM and the Ki ([1]; average and SEM) was 557 ± 135 µM. The “inhibition of uracil transport” value [2] was “unable to inhibit”, the Hill slope (TvagENT3) was −1.17 ± 0.15 and the Ki (TvagENT3) was 286 ± 12 µM. It also gave an inhibition at 400 µM (TvagENT3; read-out: inhibition of cytidine uptake) of 62.6%, a Hill slope (TvagENT3; single experiment, Fig. 10D-F) of −1.1 and a Ki [8] of 206 ± 62 µM. For the same molecule, the affinity (P1 transporter) was 44 µM, the rate of uptake ([12]; 1 µM [3H]-thymidine) was 0.139 ± 0.008 pmol(10^7 cells)^−1s^−1 and the “rate of uptake in the presence of unlabelled permeant” value ([12]; 1 µM [3H]-thymidine + 1 mM thymidine) was 0.013 ± 0.0018 pmol(10^7 cells)^−1s^−1. The inhibition of uptake ([12]; 1 µM [3H]-thymidine by 1 mM unlabelled thymidine) was 90.6%, the “Vmax, low affinity component” value [12, 18] was 12.0 pmol(10^7 cells)^−1s^−1 and the Vmax ([12]; Thymidine (LA), average and SEM) was 9.4 ± 2.5 pmol(10^7 cells)^−1s^−1. It also gave an EC50 ([12]; read-out: EC50, higher affinity component, 1 µM [3H]-thymidine, 2-site equation, single experiment) of 10.7 µM, an EC50 ([12]; read-out: EC50, lower affinity component, 1 µM [3H]-thymidine, 2-site equation, single experiment) of 529 µM and a Km ([12]; read-out: Km, low affinity component, Lineweaver-Burk double reciprocal plot, single experiment, Fig. 3F) of 340 µM. The Km ([12]; read-out: Km,app, Thymidine (LA), 1 µM [3H]-thymidine, average and SEM) was 470 ± 104 µM, the Km [12, 19] was 394 µM and the Vmax [12, 19] was 12.9 pmol(10^7 cells)^−1s^−1. For the same molecule, the inhibition of uptake ([3]; 0.125 µM [3H]-thymidine by 1 mM unlabelled thymidine) was 75%, the rate of uptake ([3]; 0.125 µM [3H]-thymidine, average of 4 experiments over 60 s) was 0.0045 ± 0.0012 pmol(10^7 cells)^−1s^−1 and the “Vmax, higher affinity component” value [3, 18] was 2.2 pmol(10^7 cells)^−1s^−1. The Vmax ([3]; Thymidine (HA), average and SEM) was 0.69 ± 0.37 pmol(10^7 cells)^−1s^−1, the Vmax ([3]; Thymidine (HA), average and SEM, listed as Thymidine) was 6.7 ± 1.8 pmol(10^7 cells)^−1s^−1 and the EC50 ([3]; inhibition of 0.125 µM [3H]-thymidine uptake, single experiment, Fig. 3C/D) was 11.7 µM. For the same molecule, the Km ([3]; read-out: Km, higher affinity component, Lineweaver-Burk double reciprocal plot, single experiment, Fig. 3F) was 23.6 µM, the Km ([3]; read-out: Km,app, Thymidine (HA), 125 nM [3H]-thymidine, average and SEM) was 13.2 ± 0.8 µM and the Km [3, 20] was 15.1 µM. The Vmax [3, 20] was 0.245 pmol(10^7 cells)^−1s^−1.
In the case of TvagENT6 (Trichomonas vaginalis G3), the Km [15] is reported as 125.4 µM.
In the case of `Nc1ncnc2c1c(-c1ccc(Cl)cc1)cn2[C@@H]1O[C@H](CO)[C@@H](O)[C@H]1O` [7-(4-Cl-phenyl),7-deazaadenosine], the efficacy [16] is given as “efficacious”.
